{
  "source": "patent US20230277710A1",
  "about": "“SYSTEM AND DEVICE FOR SANITIZING THE AIR” (The Procter & Gamble Company, priority 2022, published 2023)",
  "tested_on": "Staphylococcus aureus",
  "assay": "Microorganism kill against airborne Staphylococcus aureus, pre and post filtration",
  "format": "cell-based",
  "conditions": "TEG pipetted onto hotplate @ 250° C.",
  "data": [
    {"smiles": "OCCOCCOCCO", "note": "[TEG, triethylene glycol]", "values": [
      {"measurement": "Microorganism kill against Staphylococcus aureus (log10 reduction)", "setting": "Post-Filtration", "result": 3, "unit": "log10 reduction"},
      {"measurement": "Microorganism kill against Staphylococcus aureus, time to 3 log10 reduction", "setting": "Post-Filtration", "result": "in 33 min"},
      {"measurement": "Microorganism kill against Staphylococcus aureus (log10 reduction)", "setting": "Pre-Filtration", "result": 3, "unit": "log10 reduction"},
      {"measurement": "Microorganism kill against Staphylococcus aureus, time to 3 log10 reduction", "setting": "Pre-Filtration", "result": "in 18.2 min"}
    ]}
  ]
}
